Source: patent publication US20110112104A1, “TRICYCLIC COMPOUNDS, A PROCESS FOR THEIR PREPARATION AND PHARMACEUTICAL COMPOSITIONS CONTAINING THEM” (LES LABORATOIRES SERVIER, priority 2008, published 2011)

System: caspase 3
Assay: Induction of caspase activity in vitro
Assay type: cell-based, human
Conditions: H146 small-cell lung carcinoma cells, compound at 10 μM, 6 hours exposure
Method: This study was carried out on the following human tumour cell line: • 1 small-cell lung carcinoma, H146. This cell line is cultured in an incubator at 37° C. in the presence of 5% CO2. More specifically, the H146 cells are cultured in complete RPMI 1640 medium containing 10% foetal calf serum, 2 mM glutamine, 50 units/ml of penicillin, 50 μg/ml of streptomycin and 10 mM Hepes buffer, pH=7.4. The cells are distributed onto 6-well plates and exposed to the test compounds for 6 hours. They are then collected and lysed and the caspase activity is measured in the cell lysates. This enzymatic measurement is carried out by measuring the appearance of a fluorigenic cleavage product (Pharmacia).

**Q.** `CN(C)CC[C@H](CSc1ccccc1)Nc1ccc(S(=O)(=O)NC(=O)c2cc3c(cn2)N2CCN(Cc4ccccc4-c4ccc(Cl)cc4)CC2C3)cc1[N+](=O)[O-].Cl.Cl.Cl` (stereo partly drawn) [Example 1, N-({2-[(4′-Chloro[1,1′-biphenyl]-2-yl)methyl]-1,2,3,4,10,10a-hexahydropyrido[4′,3′:4,5]pyrrolo[1,2-a]pyrazin-8-yl}carbonyl)-4-({(1R)-3-(dimethylamino)-1-[(phenylsulphanyl)methyl]propyl}amino)-3-nitro-benzenesulphonamide trihydrochloride] was tested. Which “caspase 3 activity in cell lysates” value did it give?
**A.** 15395 RFU (Relative Fluorescence Units)

**Q.** With `CN(C)CC[C@H](CSc1ccccc1)Nc1ccc(S(=O)(=O)NC(=O)c2ccc3c(n2)CC2CN(Cc4ccccc4-c4ccc(Cl)cc4)CCN32)cc1[N+](=O)[O-].Cl.Cl` (stereo partly drawn) [Example 2, N-({8-[(4′-Chloro[1,1′-biphenyl]-2-yl)methyl]-6,7,8,9,9a,10-hexahydropyrido[2′,3′:4,5]pyrrolo[1,2-a]pyrazin-2-yl}carbonyl)-4-({(1R)-3-(dimethylamino)-1-[(phenylsulphanyl)methyl]propyl}amino)-3-nitro-benzenesulphonamide dihydrochloride] as the molecule, how does the “caspase 3 activity in cell lysates” value read?
**A.** 9948 RFU (Relative Fluorescence Units)

**Q.** How did the “caspase 3 activity in cell lysates” value turn out when `CN(C)CC[C@H](CSc1ccccc1)Nc1ccc(S(=O)(=O)NC(=O)c2cnc3c(c2)CC2CN(Cc4ccccc4-c4ccc(Cl)cc4)CCN32)cc1[N+](=O)[O-].Cl.Cl.Cl` (stereo partly drawn) [Example 3, N-({7-[(4′-Chloro[1,1′-biphenyl]-2-yl)methyl]-5,5a,6,7,8,9-hexahydropyrido[3′,2′:4,5]pyrrolo[1,2-a]pyrazin-3-yl}carbonyl)-4-({(1R)-3-(dimethylamino)-1-[(phenylsulphanyl)methyl]propyl}amino)-3-nitro-benzenesulphonamide trihydrochloride] was run?
**A.** 17776 RFU (Relative Fluorescence Units)
